Experiments:
Format in all cases: functional, cell-based
Caov-3 cell line = test: cells; settings: Homo sapiens;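 further: cell growth inhibition read out by a viability assay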
Description: SANGER: Inhibition of human Caov-3 cell growth in a cell viability assay.

SK-CO-1 = test: cells; settings: Homo sapiens;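 further: growth inhibition of SK-CO-1 cells, determined by a viability readout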
Description: SANGER: Inhibition of human SK-CO-1 cell growth in a cell viability assay.

MDA-MB-468 = test: cells; settings: Homo sapiens
Description: SANGER: Inhibition of human MDA-MB-468 cell growth in a cell viability assay.

PLC-PRF-5 = test: cells; settings: Homo sapiens;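 further: growth inhibition of human PLC-PRF-5 cells, read out with a viability assay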
Description: SANGER: Inhibition of human PLC-PRF-5 cell growth in a cell viability assay.

NCI-H1734 = test: cells; settings: Homo sapiens;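 further: growth inhibition of human NCI-H1734 cells, read out with a cell viability assay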
Description: SANGER: Inhibition of human NCI-H1734 cell growth in a cell viability assay.

ECC12 = test: cells; settings: Homo sapiens
Description: SANGER: Inhibition of human ECC12 cell growth in a cell viability assay.

HCC1143 = test: cells; settings: Homo sapiens;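 further: growth inhibition of human HCC1143 cells, read out with a cell viability assay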
Description: SANGER: Inhibition of human HCC1143 cell growth in a cell viability assay.

COLO 205 = test: cells; settings: Homo sapiens
Description: SANGER: Inhibition of human COLO-205 cell growth in a cell viability assay.

DMS-53 = test: cells; settings: Homo sapiens;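 further: cell viability assay measuring growth inhibition of human DMS-53 cells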
Description: SANGER: Inhibition of human DMS-53 cell growth in a cell viability assay.

TT = test: cells; settings: Homo sapiens
Description: SANGER: Inhibition of human TT cell growth in a cell viability assay.

NCI-H1618 = test: cells; settings: Homo sapiens;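 further: growth inhibition of human NCI-H1618 cells, measured by a cell viability assay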
Description: SANGER: Inhibition of human NCI-H1618 cell growth in a cell viability assay.

C-4-II = test: SANGER: Inhibition of human C-4-II cell growth in a cell viability assay.
NCI-H2227 = test: cells; settings: Homo sapiens;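 further: growth inhibition of the human cell line, read out with a cell viability assay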
Description: SANGER: Inhibition of human NCI-H2227 cell growth in a cell viability assay.

EFE-184 = test: cells; settings: Homo sapiens
Description: SANGER: Inhibition of human EFE-184 cell growth in a cell viability assay.

MFE-296 = test: SANGER: Inhibition of human MFE-296 cell growth in a cell viability assay.
RT-4 = test: SANGER: Inhibition of human RT4 cell growth in a cell viability assay.
NCI-H838 = test: cells; settings: Homo sapiens;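 further: growth inhibition of human NCI-H838 cells, read out by a cell viability assay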
Description: SANGER: Inhibition of human NCI-H838 cell growth in a cell viability assay.

Calu-1 = test: SANGER: Inhibition of human Calu-1 cell growth in a cell viability assay.
SNU-475 = test: cells; settings: Homo sapiens
Description: SANGER: Inhibition of human SNU-475 cell growth in a cell viability assay.

IPC-298 = test: SANGER: Inhibition of human IPC-298 cell growth in a cell viability assay.
Caov-4 = test: cells; settings: Homo sapiens
Description: SANGER: Inhibition of human Caov-4 cell growth in a cell viability assay.

CCF-STTG1 = test: cells; settings: Homo sapiens;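 further: growth inhibition of human CCF-STTG1 cells, determined with a cell viability read-out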
Description: SANGER: Inhibition of human CCF-STTG1 cell growth in a cell viability assay.

DV-90 = test: cells; settings: Homo sapiens;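 further: Read-out is a viability assay, with IC50 reflecting the drop in DV-90 cell growth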
Description: SANGER: Inhibition of human DV-90 cell growth in a cell viability assay.

SNG-M = test: cells; settings: Homo sapiens
Description: SANGER: Inhibition of human SNG-M cell growth in a cell viability assay.

CC(C)=CC[C@@H](O)C1=CC(=O)c2c(O)ccc(O)c2C1=O [SHIKONIN]
IC50 (Caov-3 cell line): 0.767 µM | IC50 (SK-CO-1): 2.05 µM | IC50 (MDA-MB-468): 0.967 µM | IC50 (PLC-PRF-5): 1.82 µM | IC50 (NCI-H1734): 6.9 µM | IC50 (ECC12): 9.65 µM | IC50 (HCC1143): 0.53 µM | IC50 (COLO 205): 0.538 µM | IC50 (DMS-53): > 16 µM | IC50 (TT): 1.7 µM | IC50 (NCI-H1618): 2.02 µM | IC50 (C-4-II): 0.588 µM | IC50 (NCI-H2227): 4.89 µM | IC50 (EFE-184): 0.544 µM | IC50 (MFE-296): 0.662 µM | IC50 (RT-4): 10.1 µM | IC50 (NCI-H838): > 16 µM | IC50 (Calu-1): 1.23 µM | IC50 (SNU-475): 14.1 µM | IC50 (IPC-298): > 16 µM | IC50 (Caov-4): 1.88 µM | IC50 (CCF-STTG1): 0.768 µM | IC50 (DV-90): > 16 µM | IC50 (SNG-M): 0.272 µM
